Measurements published in patent publication US20220040136A1, “TREATMENT OF VULVOVAGINAL DISORDERS” (University of Rochester, priority 2018, published 2022).

What was measured:
human vulvar fibroblasts = test: In vitro LPV model: SPM pre-treatment of patient vestibular/vulvar fibroblasts before inflammatory stimulation, IL-6 and PGE2 by ELISA/EIA; type: cell-based; conditions: pre-treated 10 hours with 5 nM SPM, vestibular and external vulvar fibroblasts
Protocol: FIGS. 5A, 5B, 5C, and 5D are a set of diagrams showing that PGE2 and IL-6 production is reduced by SPMs. Patient vestibular or vulvar fibroblasts were pre-treated for 10 hours with Lipoxin A4 (LxA4), Resolvin D2 (RvD2), (7R)-Maresin 1 or epi(7S)-Maresin 1 at a 5 nM concentration, then activated with IL-1β (Panel A; 10 pg/ml) or bradykinin (Panel B; 100 nM) for 48 hr. Culture media were collected and analyzed for PGE2 (Panel A) or IL-6 (Panel B) content. Patient fibroblasts were also activated first with IL-1β for 30 min then treated with 5 nM (7R)-Maresin 1 or LXA4 for 18 hours, followed by a booster dose for 6 hr. Culture media were collected and analyzed for PGE2 (Panel C) or IL-6 (Panel D) content. Mean+/−SEM of n=3, ANOVA *p<0.05 vs. activation only (no SPM).
FIGS. 23A and 23B are diagrams showing six SPMs are effective in reducing IL-6 and PGE2 production from fibroblasts when used as a pre-treatment and post-treatment. Patient vestibular or vulvar fibroblasts were pre-treated for 18 h with Resolvin D3 (RvD3), Resolvin D4 (RvD4), Resolvin D5 (RvD5), Resolvin E1 (RvE1), Protectin D1 or Protectin DX at a 5 nM concentration, pre-treated again for 30 min prior to activation, then activated with 10 pg/ml IL-1β for 48 h with a booster SPM dose at 24 h. Culture media were collected and analyzed for IL-6 (Panel A) and PGE2 (Panel B). Mean+/−SEM of n=6 (two cases run in triplicate), ANOVA *p<0.05 vs. activation only (IL-1b).
In this example, a fibroblast-based in vitro LPV model was established. Briefly, fibroblast strains were obtained from two regions (FIG. 1) of the lower genital tract of localized provoked vulvodynia (LPV) cases and pain-free controls in the manner described in Falsetta et al. Am J Obstet Gynecol 2015, vol. 213, pp. 38 e1-12 and Foster et al., Pain 2015, vol. 156, pp. 386-96.
Over 30 paired fibroblast strains obtained from LPV-afflicted cases (fulfilling Friedrich's Criteria)^25 and age/race-matched (critical variables influencing LPV),^26, 27 pain-free controls were obtained. All subjects who contributed to the library were premenopausal, denied oral corticosteroids, non-steroidal, immunomodulatory, or anti-inflammatory medication use, and reported an absence of systemic/cutaneous inflammatory conditions at the time of sample collection. Mechanical pain thresholds were determined (via a method of limits) (0.5-5 N) using a Wagner algometer. Fibroblast identity was confirmed by microscopy and fibroblast markers (vimentin, collagen); only low passage (˜4) cells are used.
Synthesized, purified and commercially available SPMs from each known SPM class (E-series Resolvins, D-series Resolvins, Maresins, Protectins and Lipoxins) at low/nanomolar concentrations (1-100 nM) were tested. […] The inventors used one of two treatment regimens proven effective in vulvar fibroblasts and other cells: 1) overnight pre-treatment, followed by another treatment 30 min prior to stimulation with proinflammatory stimuli for 48 hr with a third dose of SPMs at 24 hr post-challenge, or 2) post-treatment with SPMs after a 30 min pre-treatment with inflammatory stimuli, followed by a booster dose 18 hr later. Both treatment regimens are of interest, as SPMs are active throughout the inflammatory process.^5-7 Even SPMs administered after LPV onset are likely to prevent the worsening or spread of LPV pain.
Next, SPMs from other classes (E series Resolvins and Protectins), as well as additional SPMs from classes containing members that are effective in reducing IL-6 and PGE2 production (e.g., Maresins) were investigated in similar screen. […] SPMs that were effective in reducing more than one proinflammatory mediator in at least 2 tests can be examined for further testing using a preclinical mouse model. […] These additional effective SPMs include Resolvin D3, Resolvin D4, Resolvin D5, Resolvin E1, Protectin D1, and Protectin DX. […]

Mouse vulvar tissue = test: Mouse vulvar explants (4 mm punch biopsy), IL-1β-stimulated PGE2 production; type: cell-based; conditions: pre-treatment 18 hours, then IL-1β 10 pg/ml 18 hours; range of doses, as low as 1 nM; FIG. 6
Protocol: FIG. 6 is a diagram showing that SPMs inhibit PGE2 production from mouse vulvar tissue. Mouse vulvar tissue (4 mm punch biopsies) was collected and bisected then pre-treated in culture medium with either Maresin 1 or RvD2 at indicated concentrations for 18 hours, followed by an additional 18 hours stimulation with IL-1β (10 pg/ml). Culture medium was collected and analyzed for PGE2 content. Mean+/−SEM; n=3 replicate cultures. ANOVA * p<0.05 vs. vehicle.
Although SPM structure and therapeutic efficacy is conserved across species,^5-7 inventors first confirmed that mouse vulvar tissues responded to SPM treatment in vitro by culturing mouse vulvar explants (4 mm punch biopsy). The explants were stimulated with IL-1, and then assays were carried to assess the ability of Maresin 1 or RvD2 to reduce PGE2 production under the established pre-treatment regimen.

## CC/C=C\C/C=C\C[C@H](O)\C=C/C=C/C=C/[C@H](O)C/C=C\CCC(=O)O [Maresin 1, 7R,14S-docosa-4Z,8E,10E,12Z,16Z,19Z-hexaenoic acid]
Human vulvar fibroblasts; then IL-1β 10 pg/ml 48 hr, FIG. 5A
  prostaglandin E2 (PGE2) production: significantly reduced
Human vulvar fibroblasts; then bradykinin 100 nM 48 hr, FIG. 5B
  interleukin-6 (IL-6) production: significantly reduced
Mouse vulvar tissue
  PGE2 responses following IL-1β treatment: significantly suppressed
